# Earlier results in patent US9597313B2 (priority 2006, dated 2017).
# Test system: aflatoxin-N7-guanine adducts
# Conditions: 100 mg chlorophyllin three times a day for four months
substance,measurement,value
chlorophyllin,Reduction in median urinary levels of aflatoxin-N7-guanine adducts compared with placebo,55%
